Test results: EP0272446B1, “Novel antiviral agents” (SRI INTERNATIONAL, priority 1983, dated 1984)
Values after ≈ are worked out from the molar mass of the structure shown. Where two headings read alike, the source gives them in different places.

Experiments:
[1] = test system: Thymidine Kinase-Positive Type 1 Herpes Virus; assay: In vitro antiviral test, inhibition of viral cytopathic effect (CPE) in MA-104 cell monolayers; assay type: cell-based, Strain McCrae of type 1 herpes
Description: The compounds of Example I and II were evaluated in vitro as antiviral agents against herpes virus.
The virus strain employed was Strain McCrae of type 1 herpes (thymidine kinase positive virus) prepared and titered in MA-104 cells and frozen at -90°C until use.
(§1) Continuous passaged monkey kidney (MA-104) cells were used, with growth medium consisting of Minimum Essential Medium (MEM) supplemented with 0.1% NaHCO₃ and 9% fetal calf serum. Test medium consisted of MEM supplemented with 2% fetal bovine serum, 0.18% NaHCO₃ and […] gentamicin.
The last compounds were added to test medium at a concentration of 2000 µg/ml for use as a positive control.
(§2) To a 96 well microtiter plate containing an established 24 hour monolayer of cells from which the medium has been decanted was added 0.1 ml of varying (one-half log₁₀) concentrations of test compound, which incubated on the cell 15 minutes, after which 0.1 ml of virus in a concentration of 320 cell culture 50% infectious doses (CCID50)/0.1 ml was added. The plate was covered with plastic wrap and incubated at 37°C. Included with the test were toxicity controls (each concentration of compound + test medium in place of […]) and cell controls (test medium in place of compound and virus). The cells were examined microscopically after 72 hours for evidence of cytotoxicity and for viral cytopathic effect (CPE). Vidarabine was run on the same plate in parallel.
(§3) Antiviral activity was determined by observation of inhibition of viral CPE. This activity was expressed by minimum inhibitory concentration (MIC), Defined as that dose range of compound causing 50% CPE inhibition. A Virus Rating (VR) was also determined, which is a numerical expression of antiviral activity, weighted to take into account any cytotoxicity observed. Generally, a VR of 0.1 - 0.4 is usually indicative of slight antiviral effect, 0.5 - 0.9 indicates moderate antiviral effedt, and >1.0 implies strong antiviral activity.

[2] = Cytotoxicity (toxicity controls) in the antiviral test, maximum tolerated dose; assay type: cell-based; conditions: monkey, ma-104 cells, Table B
Description: as §1, §2

cytomegalo virus = assay: In vitro antiviral test (CPE inhibition method) against cytomegalo virus; assay type: cell-based
Description: as §2
as §3, with “Generally, a VR of 0.1 - 0.4 is usually indicative of slight antiviral effect, 0.5 - 0.9 indicates moderate antiviral effedt, and >1.0 implies strong antiviral activity.” left out
The compound of Example II was further evaluated by the above-described in vitro test method against cytomegalo virus. […]

[3] = test system: thymidine kinase positive herpes virus; assay: In vivo test in guinea pigs inoculated with herpes virus, lesions measured; conditions: for Satellite lesions: five days later; for TK+ virus, average number of lesions: measured five days later
Description: The compound of Example II was tested in vivo in guinea pigs as an agent against thymidine kinase positive herpes virus. The animals were innoculated with the virus. Eighteen hours later the material of Example II (0.4% solution in water or 1-2% solution), a 5% solution of acyclovir or a 1.4% solution of poly(vinylalcohol) was administered and five days later blister diameters at the point of innoculation were measured. Satellite lesions were measured as well.

[4] = MA104, 72 h, read-out: CPE Inhib. (%)
[5] = MA104, read-out: MIC (Minimum inhibitory concentration)
[6] = MA104, read-out: Test1 CPE Inhib. (%)
[7] = MA104, read-out: Test2 CPE Inhib. %
[8] = Table A, 0.1 - 0.4 = slight, 0.5 - 0.9 = moderate, ≥ 1.0 = strong activity
[9] = Test 1, read-out: MTD (Maximum tolerated dose)
[10] = Test 2, read-out: MTD (Maximum tolerated dose)
[11] = 0.4% solution in water given eighteen hours after inoculation
[12] = 1-2% saturated solution given eighteen hours after inoculation
[13] = 5% solution given eighteen hours after inoculation

Structure (SMILES)	EC50 [1, 5] [µg/mL]	inhibition at 3.2 µg/mL [1, 6] [%]	inhibition at 10 µg/mL [1, 6] [%]	inhibition at 32 µg/mL [1, 6] [%]	inhibition at 100 µg/mL [1, 6] [%]	inhibition at 320 µg/mL [1, 6] [%]	inhibition at 1000 µg/mL [1, 6] [%]	inhibition at 3.2 µg/mL [1, 7] [%]	inhibition at 10 µg/mL [1, 7] [%]	inhibition at 32 µg/mL [1, 7] [%]	inhibition at 100 µg/mL [1, 7] [%]	inhibition at 320 µg/mL [1, 7] [%]	inhibition at 1000 µg/mL [1, 7] [%]	VR (Virus rating) [1, 8]	VR (Virus rating) ([1]; Table B, Test 1)	VR (Virus rating) ([1]; Table B, Test 2)	MNTC at 72 h [2, 9] [µg/mL]	MNTC at 72 h [2, 10] [µg/mL]	also measured
Nc1ncnc2c1ncn2[C@@H]1O[C@H](CO)[C@@H](O)[C@@H]1O [Vidarabine, reference compound]	10 (≈ 37.4 µM)	2	60	96	96	100	100	0	39	57	85	100	100	1.3	0.8	07	10	10	inhibition at 1 µg/mL [1, 4]: 56%; inhibition at 3.2 µg/mL [1, 4]: 28%; inhibition at 10 µg/mL [1, 4]: 69%; inhibition at 32 µg/mL [1, 4]: 87%; inhibition at 100 µg/mL [1, 4]: 87%; inhibition at 320 µg/mL [1, 4]: 100%; inhibition at 1000 µg/mL [1, 4]: 100%
Nc1nc2c(ncn2COCCCP(=O)(O)O)c(=O)[nH]1 [Example I, 9(3-phosphono-1-propyloxymethyl)guanine]	–	–	–	–	–	–	–	–	–	–	–	–	–	1.4	–	–	–	–	inhibition at 1 µg/mL ([1]; MA104, Table A, conc. 1.0 μg/ml, 72 hours, read-out: CPE Inhib. (%)): 31%; inhibition at 3.2 µg/mL ([1]; MA104, Table A, conc. 3.2 μg/ml, 72 hours, read-out: CPE Inhib. (%)): 28%; inhibition at 10 µg/mL ([1]; MA104, Table A, conc. 10 μg/ml, 72 hours, read-out: CPE Inhib. (%)): 49%; inhibition at 32 µg/mL ([1]; MA104, Table A, conc. 32 μg/ml, 72 hours, read-out: CPE Inhib. (%)): 62%; inhibition at 100 µg/mL ([1]; MA104, Table A, conc. 100 μg/ml, 72 hours, read-out: CPE Inhib. (%)): 79%; inhibition at 320 µg/mL ([1]; MA104, Table A, conc. 320 μg/ml, 72 hours, read-out: CPE Inhib. (%)): 94%; inhibition at 1000 µg/mL ([1]; MA104, Table A, conc. 1000 μg/ml, 72 hours, read-out: CPE Inhib. (%)): 100%; EC50 ([1]; MA104, Table A, dosage range wherein a 50% CPE inhibition is seen, read-out: MIC (Minimum inhibitory concentration)): 10 µg/mL (≈ 33 µM)
CCOP(=O)(O)CCCOCn1cnc2c(=O)[nH]c(N)nc21 [Example II, 9(3-ethylphosphono-1-propyloxymethyl)guanine]	< 1	96	38	6	47	82	100	52	48	57	57	67	76	–	>2.0	>1.4	320	> 1000	inhibition at 1.2 µg/mL [1, 6]: 69%; inhibition at 1.2 µg/mL [1, 7]: 48%; MIC (Minimum inhibitory concentration) ([1]; Table B, Test 2, dosage range wherein a 50% CPE inhibition is seen): <1.0 µg/mL; VR (cytomegalo virus): 2.1-2.3; Satellite lesions [3, 11]: 11; TK+ virus, average number of lesions [3, 11]: 2.1; Satellite lesions [3, 12]: 6; TK+ virus, average number of lesions [3, 12]: 0.9
Nc1nc2c(ncn2COCCO)c(=O)[nH]1 [Acyclovir, acyclovir, reference compound]	–	–	–	–	–	–	–	–	–	–	–	–	–	–	–	–	–	–	Satellite lesions [3, 13]: 4; TK+ virus, average number of lesions [3, 13]: 1.0
